Results: patent US4665095A, “Use of 2-[(3,5-dihalo-4-aminobenzyl)]imidazolines to stimulate alpha-1 adrenergic receptors and to treat nasal congestion” (Abbott Laboratories, priority 1985, dated 1987)
Where a name gives a salt, the structure may show the parent alone.

What was measured:
[1] = tested on: nasal resistance in anesthetized dogs; test: Effect on airway (nasal) resistance in anesthetized dogs following intranasal spray administration; assay type: in vivo, beagle dog; conditions: aerosol, mg per dog
Description: (§1) a. Method Beagle dogs of either sex, weighing 9-12 kg were anesthetized with nembutal (30 mg/kg, intravenously) with supplemental doses administered throughout the experiment as required. The dogs were intubated with a cuffed endotracheal tube and were ventilated with room air by means of a Harvard respiration pump. Arterial blood pressure was recorded from a femoral artery using a Statham P23Gb pressure transducer. A tachygraphic recording of heart rate was obtained from the blood pressure signal.
(§2) A constant flow of air (2 liters/minute); provided by an anesthetic machine (CAECO) was administered into a nasal cavity through a 6 cm long plastic tube tapered to a diameter of 6 mm to fit into the right nostril. The air perfused the nasal cavity and exited through the mouth. The resistance to the air flow exerted by the large surface area of the nasal mucosa was measured as a nasal pressure in cm of water, using Model MP 45 Validyne transducer. […] Since the amount of drug administered in this way is extremely small and not directly measurable, the doses were calculated from the concentration of drug in the humidifier and volume of fluid used in each administration (in mg per dog). The nasal resistance, heart rate and blood pressure were monitored prior to and then 2 hours following the drug administration. […]

[2] = Blood pressure and heart rate in anesthetized dogs following intranasal spray administration; assay type: in vivo, beagle dog
Description: as §1, §2

nasal mucosa of rats = test: Effect on Nasal Irritation in Rats; assay type: in vivo, rat (CD strain)
Description: The product of Example 4 was dissolved in phosphate buffered normal saline and adjusted to a pH of approximately 7. The solution was prepared at the following concentrations: 0.05, 0.15, 0.5 and 1.5 percent. Groups of five male rats (CD strain) were administered each dose. The rats were approximately 5 weeks old at the start of treatment. Prior to dosing, ketaminehydrochloride was administered intraperitoneally to produce transient anesthesia to facilitate test compound administration. Rats in each group were given 0.04 mL/day of the appropriate solution for 14 days. The dosage was divided equally between both nostrils (i.e., 0.02 mL/nostril/day).

nasal mucosa = conditions: background art; cited from earlier work
[3] = up to 1.5%, 0.04 mL/day intranasal, 14 days

SMILES | threshold dose producing decrease of nasal resistance [1] [mg] | systematic hemodynamic effects ([2]; at the effective nasal decongestant dose) | elevation of the blood pressure above the base level ([2]; highest tested dose, 1.65 mg) | nasal mucosal injury (nasal mucosa of rats; [3]) | systemic toxic effects (nasal mucosa of rats; [3]) | irritation of the nasal mucosa (nasal mucosa) | toxicity or nasal injury (nasal mucosa of rats; 0.05% to 0.15% concentrations) | nasal mucosal injury (nasal mucosa of rats; 0.5% and 1.5% concentration) | systemic side effects and deaths (nasal mucosa of rats; 0.5% and 1.5%, repeated administration)
Nc1c(Cl)cc(CC2=NCCN2)cc1Cl [Example 4, 2-[(3,5-Dichloro-4-aminobenzyl)]imidazoline hydrochloride] | 0.00165 | devoid of any systematic hemodynamic effects | approximately 10% | no nasal mucosal injury | no nasal mucosal injury or any systemic toxic effects | – | – | – | –
c1ccc2c(CC3=NCCN3)cccc2c1 [naphazoline] | – | – | – | – | – | often cause irritation of the nasal mucosa | – | – | –
Cc1cc(C(C)(C)C)c(O)c(C)c1CC1=NCCN1 [oxymetazoline] | – | – | – | – | – | often cause irritation of the nasal mucosa | did not cause any toxicity or nasal injury | induced nasal mucosal injury | Systemic side effects and deaths occurred in most animals
